By IC50 is commonly meant the concentration that inhibits the measured activity by half.

Sequence of purified human recombinant ATM (ataxia telangiectasia mutated), full length (Q13315 whole entry, change not shown): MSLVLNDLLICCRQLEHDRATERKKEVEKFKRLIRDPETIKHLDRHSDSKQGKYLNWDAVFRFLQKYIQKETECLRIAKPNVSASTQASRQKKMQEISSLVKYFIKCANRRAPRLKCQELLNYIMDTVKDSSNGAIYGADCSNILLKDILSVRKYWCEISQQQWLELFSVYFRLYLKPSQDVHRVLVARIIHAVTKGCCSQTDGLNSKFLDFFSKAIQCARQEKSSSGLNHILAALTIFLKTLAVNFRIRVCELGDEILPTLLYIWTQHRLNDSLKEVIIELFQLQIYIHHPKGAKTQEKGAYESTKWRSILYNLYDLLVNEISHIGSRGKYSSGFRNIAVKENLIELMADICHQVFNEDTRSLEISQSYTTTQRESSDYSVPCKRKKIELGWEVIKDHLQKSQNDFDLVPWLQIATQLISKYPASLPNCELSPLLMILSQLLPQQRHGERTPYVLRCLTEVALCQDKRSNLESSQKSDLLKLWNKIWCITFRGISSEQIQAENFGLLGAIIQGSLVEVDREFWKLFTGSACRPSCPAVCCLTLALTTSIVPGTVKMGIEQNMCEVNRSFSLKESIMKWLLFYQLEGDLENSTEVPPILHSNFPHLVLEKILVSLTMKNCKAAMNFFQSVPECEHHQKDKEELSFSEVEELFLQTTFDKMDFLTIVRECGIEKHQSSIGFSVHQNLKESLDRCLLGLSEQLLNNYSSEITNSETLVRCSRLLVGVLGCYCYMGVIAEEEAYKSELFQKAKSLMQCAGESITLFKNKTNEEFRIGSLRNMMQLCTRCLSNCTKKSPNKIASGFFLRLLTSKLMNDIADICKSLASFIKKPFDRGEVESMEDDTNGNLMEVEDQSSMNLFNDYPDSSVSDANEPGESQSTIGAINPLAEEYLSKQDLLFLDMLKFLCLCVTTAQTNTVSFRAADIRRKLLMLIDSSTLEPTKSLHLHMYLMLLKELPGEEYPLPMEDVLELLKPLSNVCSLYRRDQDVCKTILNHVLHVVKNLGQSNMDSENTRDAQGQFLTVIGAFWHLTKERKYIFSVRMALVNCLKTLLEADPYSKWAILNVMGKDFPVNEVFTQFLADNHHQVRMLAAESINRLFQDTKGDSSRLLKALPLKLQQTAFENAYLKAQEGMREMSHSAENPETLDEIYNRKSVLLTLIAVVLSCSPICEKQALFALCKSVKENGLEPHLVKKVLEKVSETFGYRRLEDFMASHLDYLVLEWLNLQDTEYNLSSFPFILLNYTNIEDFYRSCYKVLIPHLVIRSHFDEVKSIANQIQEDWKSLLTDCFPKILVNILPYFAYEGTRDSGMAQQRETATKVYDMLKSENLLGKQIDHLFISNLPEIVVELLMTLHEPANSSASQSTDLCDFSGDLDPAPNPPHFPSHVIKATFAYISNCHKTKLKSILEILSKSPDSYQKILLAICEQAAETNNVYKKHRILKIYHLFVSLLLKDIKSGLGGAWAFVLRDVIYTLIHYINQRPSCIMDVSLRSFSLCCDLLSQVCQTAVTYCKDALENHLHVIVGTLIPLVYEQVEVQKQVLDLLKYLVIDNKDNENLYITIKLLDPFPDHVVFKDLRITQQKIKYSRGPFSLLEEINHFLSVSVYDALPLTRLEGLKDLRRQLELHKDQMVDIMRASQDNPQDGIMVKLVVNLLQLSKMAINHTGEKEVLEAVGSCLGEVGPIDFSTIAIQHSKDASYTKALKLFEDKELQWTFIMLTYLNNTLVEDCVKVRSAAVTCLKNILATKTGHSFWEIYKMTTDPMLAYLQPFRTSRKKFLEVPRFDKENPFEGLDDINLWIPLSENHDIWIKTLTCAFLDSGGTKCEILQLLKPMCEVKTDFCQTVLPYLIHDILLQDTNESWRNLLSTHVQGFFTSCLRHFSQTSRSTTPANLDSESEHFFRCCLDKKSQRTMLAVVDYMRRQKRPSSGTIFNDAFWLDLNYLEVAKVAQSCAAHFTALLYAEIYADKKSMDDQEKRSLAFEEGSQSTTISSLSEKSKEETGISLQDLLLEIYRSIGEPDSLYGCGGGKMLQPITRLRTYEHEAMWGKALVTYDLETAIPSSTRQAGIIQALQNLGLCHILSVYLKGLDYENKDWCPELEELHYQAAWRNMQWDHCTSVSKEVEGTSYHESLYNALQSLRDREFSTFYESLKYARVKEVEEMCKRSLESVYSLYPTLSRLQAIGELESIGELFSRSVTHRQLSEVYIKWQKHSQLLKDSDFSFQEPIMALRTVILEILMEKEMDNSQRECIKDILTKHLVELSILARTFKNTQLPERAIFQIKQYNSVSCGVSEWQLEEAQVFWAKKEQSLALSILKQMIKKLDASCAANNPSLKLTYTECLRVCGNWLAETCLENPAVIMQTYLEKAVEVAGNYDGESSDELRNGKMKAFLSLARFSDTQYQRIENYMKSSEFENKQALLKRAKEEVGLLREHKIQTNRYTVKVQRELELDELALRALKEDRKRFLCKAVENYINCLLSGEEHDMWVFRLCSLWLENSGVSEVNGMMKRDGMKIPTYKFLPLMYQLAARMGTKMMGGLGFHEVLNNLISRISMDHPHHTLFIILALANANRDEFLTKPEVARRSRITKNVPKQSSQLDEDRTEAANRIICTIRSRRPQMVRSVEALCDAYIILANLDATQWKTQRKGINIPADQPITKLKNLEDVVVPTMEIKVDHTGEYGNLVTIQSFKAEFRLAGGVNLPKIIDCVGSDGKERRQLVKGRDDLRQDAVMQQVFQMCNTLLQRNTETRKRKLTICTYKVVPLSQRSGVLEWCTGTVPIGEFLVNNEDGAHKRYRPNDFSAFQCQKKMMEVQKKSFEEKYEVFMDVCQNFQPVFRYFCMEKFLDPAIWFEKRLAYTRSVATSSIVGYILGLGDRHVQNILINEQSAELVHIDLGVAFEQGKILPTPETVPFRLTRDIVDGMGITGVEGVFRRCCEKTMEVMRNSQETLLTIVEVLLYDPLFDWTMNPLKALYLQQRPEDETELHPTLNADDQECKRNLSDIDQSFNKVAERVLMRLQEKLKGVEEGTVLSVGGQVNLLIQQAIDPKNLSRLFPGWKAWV

The target in the assay is purified human recombinant ATM (ataxia telangiectasia mutated), full length (Homo sapiens (Human), UniProt Q13315). The assay can be described thus: ATM kinase assay - determination of ATM inhibition (IC50 ATM), TR-FRET. Type of assay: biochemical. The settings on record: 10 μM ATP, substrate p53. The method, then: ATM kinase assay—determination of ATM inhibition (IC50 ATM):
The IC50 value was determined with the aid of a biochemical ATM kinase assay. The assay consists of two steps: the enzymatic reaction and the detection step. Firstly, ATM (ataxia telangiectasia mutated) protein and the test substance are incubated at different concentrations with addition of substrate protein p53 and ATP. ATM mediates the phosphorylation of p53 at several positions, including at amino acid S15. The amount of phosphorylated p53 is determined with the aid of specific antibodies and the TR-FRET technique. The enzymatic ATM assay is carried out as TR-FRET (HTRF™, Cisbio Bioassays) based 384-well assay. In the first step, purified human recombinant ATM (human ATM, full length, GenBank ID NM_000051, expressed in a mammal cell line) is incubated in assay buffer for 15 minutes with the ATM inhibitor in various concentrations and without test substance as negative or neutral control. The assay buffer comprises 25 mM HEPES pH 8.0, 10 mM Mg(CH3COO)2, 1 mM MnCl2, 0,1% BSA and 0,01% Brij® 35, 5 mM dithiothreitol (DTT). […] In the second step, purified human recombinant cmyc-labelled p53 (human p53, full length, GenBank ID BC003596, expressed in Sf21 insect cells) and ATP are added, and the reaction mixture is incubated at 22° C. for 30-35 minutes. The pharmacologically relevant assay volume is 5 μl. […] The enzymatic reaction is stopped by addition of EDTA. […] After incubation, usually for 2 hours (between 1.5 and 15h), for signal development, the plates are analysed in a plate reader (EnVision, PerkinElmer) using TRF mode (and with laser excitation). […] The measurement data were processed by means of Genedata Screener software.
On the technique in general: In TR-FRET formats the signal depends on donor and acceptor labels being close together.
Turning to `CCn1cc(-c2cc3c(cc2OC)ncc2c3n(-c3c(F)cncc3OC)c(=O)n2C)c(C)n1` [compound 142, 8-(1-Ethyl-3-methyl-1H-pyrazol-4-yl)-1-(3-fluoro-5-methoxypyridin-4-yl)-7-methoxy-3-methyl-1,3-dihydroimidazo[4,5-c] quinolin-2-one], the IC50 is below 1 nM.
Turning to `COc1cc2ncc3c(c2cc1-c1cnn(C(F)F)c1)n(-c1c(F)cncc1OC)c(=O)n3C` [compound 143, 8-(1-Difluoromethyl-1H-pyrazol-4-yl)-1-(3-fluoro-5-methoxypyridin-4-yl)-7-methoxy-3-methyl-1,3-dihydroimidazo[4,5-c] quinolin-2-one], the IC50 was below 1 nM.
Under `COc1cnc(-n2c(=O)n(C)c3cnc4cc(OC)c(-c5ccc6nc(C)[nH]c6c5)cc4c32)c(F)c1` [compound 144, 1-(3-Fluoro-5-methoxy-pyridin-2-yl)-7-methoxy-3-methyl-8-(2-methyl-3H-benzoimidazol-5-yl)-1,3-dihydroimidazo[4,5-c]-quinolin-2-one] stands below 1 nM.
The value for `COc1cc2ncc3c(c2cc1-c1cnn(C)c1)n(-c1c(F)cncc1OC(F)F)c(=O)n3C` [compound 146, 1-(3-Difluoromethoxy-5-fluoropyridin-4-yl)-7-methoxy-3-methyl-8-(1-methyl-1H-pyrazol-4-yl)-1,3-dihydroimidazo[4,5-c]-quinolin-2-one] was below 1 nM; that for `COc1cc2ncc3c(c2cc1-c1cnn(C)c1)n(-c1c(F)cncc1OCF)c(=O)n3C` [compound 148] was below 1 nM.
The value for `COc1cc2ncc3c(c2cc1-c1n[nH]cc1C)n(-c1cn(C)nc1C)c(=O)n3C` [compound 151, 1-(1,3-Dimethyl-1H-pyrazol-4-yl)-7-methoxy-3-methyl-8-(4-methyl-1H-pyrazol-3-yl)-1,3-dihydroimidazo[4,5-c] quinolin-2-one] was below 50 nM.
Consider `COc1cc2ncc3c(c2cc1-c1cnc2nc(C)[nH]c2c1)n(-c1c(F)cncc1OC)c(=O)n3C` [compound 152, 1-(3-Fluoro-5-methoxy-pyridin-4-yl)-7-methoxy-3-methyl-8-(2-methyl-1H-imidazo[4,5-b]pyridin-6-yl)-1,3-dihydroimidazo[4,5-c]-quinolin-2-one], for which the IC50 is below 1 nM.
Under `COc1cnc(-n2c(=O)n(C)c3cnc4cc(OC)c(-c5ccc6nc[nH]c6c5)cc4c32)c(F)c1` [compound 153, 8-(3H-Benzimidazol-5-yl)-1-(3-fluoro-5-methoxypyridin-2-yl)-7-methoxy-3-methyl-1,3-dihydroimidazo[4,5-c]-quinolin-2-one] stands below 10 nM; under `COc1cc2ncc3c(c2cc1-c1cnc2nc(C)[nH]c2c1)n(-c1cn(C)nc1C)c(=O)n3C` [compound 154, 1-(1,3-Dimethyl-1H-pyrazol-4-yl)-7-methoxy-3-methyl-8-(2-methyl-1H-imidazo[4,5-b]pyridin-6-yl)-1,3-dihydro-imidazo[4,5-c]quinolin-2-one], below 1 nM.
Under `CCc1cnccc1-n1c(=O)n(C)c2cnc3cc(OC)c(-c4cnn(C)c4)cc3c21` [compound 156, 1-(3-Ethylpyridin-4-yl)-7-methoxy-3-methyl-8-(1-methyl-1H-pyrazol-4-yl)-1,3-dihydroimidazo[4,5-c] quinolin-2-one] stands below 1 nM; under `COc1cc2ncc3c(c2cc1-c1cnn(C)n1)n(-c1ncccc1F)c(=O)n3C` [compound 158, 1-(3-Fluoropyridin-2-yl)-7-methoxy-3-methyl-8-(2-methyl-2H-1,2,3-triazol-4-yl)-1,3-dihydroimidazo-[4,5-c] quinolin-2-one], below 500 nM.
Regarding `COc1cc2ncc3c(c2cc1-c1cnn(C)c1)n(-c1ccncc1C1CC1)c(=O)n3C` [compound 200, 1-(3-Cyclopropylpyridin-4-yl)-7-methoxy-3-methyl-8-(1-methyl-1H-pyrazol-4-yl)-1,3-dihydroimidazo[4,5-c] quinolin-2-one], the IC50 was below 50 nM.

(Values after patent US10457677B2 (priority 2015, dated 2019).)
